# Laboratory results from US7915293B2, “Ubiquitin ligase inhibitors” (Rigel Pharmaceuticals, Inc., priority 2003, dated 2011).
# Columns and labels:
# Design in all cases: key: “+” indicates that the compound exibits inhibitory activity; “−” indicates that low or no inhibitory activity was observed
# [1] = target: E3 (His-APC11/APC2-"APC") (Homo sapiens, UniProt Q9NYG5+Q9UJX6); test: Plate-based E3 ligase assay (APC FLAG), auto-ubiquitination; assay type: biochemical; conditions: for APC Flag 8 pt: 8 concentrations tested
# Sequence of E3 (His-APC11/APC2-"APC") (Q9NYG5 whole entry): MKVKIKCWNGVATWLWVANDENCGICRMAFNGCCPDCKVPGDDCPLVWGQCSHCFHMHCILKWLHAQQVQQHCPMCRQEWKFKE
# Sequence of E3 (His-APC11/APC2-"APC") (Q9UJX6 whole entry): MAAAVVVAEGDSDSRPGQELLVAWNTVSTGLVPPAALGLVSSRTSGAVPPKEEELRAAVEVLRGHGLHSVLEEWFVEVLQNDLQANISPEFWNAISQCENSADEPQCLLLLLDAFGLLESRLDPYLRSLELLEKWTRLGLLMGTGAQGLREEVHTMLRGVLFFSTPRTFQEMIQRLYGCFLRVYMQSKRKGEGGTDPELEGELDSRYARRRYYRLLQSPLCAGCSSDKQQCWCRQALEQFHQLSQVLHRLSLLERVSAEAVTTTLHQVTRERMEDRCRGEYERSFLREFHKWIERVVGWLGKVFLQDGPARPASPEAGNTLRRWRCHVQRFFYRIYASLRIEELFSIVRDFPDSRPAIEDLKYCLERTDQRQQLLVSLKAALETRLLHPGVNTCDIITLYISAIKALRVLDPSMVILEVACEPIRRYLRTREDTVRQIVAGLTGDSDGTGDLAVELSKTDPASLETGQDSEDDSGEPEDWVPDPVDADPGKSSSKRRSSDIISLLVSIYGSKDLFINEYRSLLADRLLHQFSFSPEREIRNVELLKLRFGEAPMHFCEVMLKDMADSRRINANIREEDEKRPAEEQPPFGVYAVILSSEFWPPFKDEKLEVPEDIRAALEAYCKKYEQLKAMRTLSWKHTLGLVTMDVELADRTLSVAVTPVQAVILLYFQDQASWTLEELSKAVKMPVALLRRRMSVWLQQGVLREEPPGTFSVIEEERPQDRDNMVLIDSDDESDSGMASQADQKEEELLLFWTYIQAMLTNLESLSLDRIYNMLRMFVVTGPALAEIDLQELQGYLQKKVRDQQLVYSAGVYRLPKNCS
# Method in brief: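 His-APC11/APC2 auto-ubiquitination was run in casein-blocked nickel plates for 1 h at room temperature, with E1 at 5 ng/well, UbcH5c at 20 ng/well and APC at 100 ng/well. Buffer was 62.5 mM Tris pH 7.6, 3 mM MgCl2, 1 mM DTT, 2.5 mM ATP and Flag-ubiquitin at 100 ng/well. Detection used anti-Flag/HRP chemiluminescence, and IC50 was typically from 6 or 8 concentrations versus a DMSO control.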
# HeLa cells [2] = test: Non-photographic proliferation analysis (Promega Cell titer Aqueous), HeLa; assay type: cell-based; conditions: 6 concentrations tested
# Description: (§1) A549 (ATCC# CCL-185), HeLa (ATCC# CCL-2), HCT116 (ATCC# CCL-247), and H1299 (ATCC# CRL-5803) cells were maintained in T175 flasks following the ATCC recommended media and handling procedures. Flasks reaching approximately 70% confluency were trypsinized and resuspended in RPMI media (Cell-Gro catalog number 10-040-CM) modified to contain 5% FBS, 100 ug/mlPen/Strep (Cell-Gro catalog number 30-002-CL), and 0.3 mg/ml L-Glutamine (Cell-Gro catalog number 25-003-CL). A 20,000 cells/ml solution was made for plating. Cells were plated in black Packard 96 well plates by placing 100 μl per well (2,000 cells per well).
# (§2) Compounds and additional media were added 24 hours after cell plating. A compound master plate was created with concentrations 500 times greater than the final concentration added to the cells. All compound testing was done in duplicate using 6.3 fold dilutions starting with 10 mM. All outside wells (and 4 internal wells) were DMSO controls. Taxol and at least one additional control were run on all plates. Three microliters of the compound master plate were added to deep well blocks containing 750 μl of RPMI media. One hundred microliters were transferred from the compound/media deep well blocks to the plated cells resulting in a 500 fold dilution of the compounds. Cells were grown at 37° C., 5% CO2 for 48 hours.
# (§3) Some cell plates were treated with Promega Cell titer Aqueous 1 kit (promega—VWR catalog number G3580). In this case, 48 hours after the test compound were added, 100 μl of media were removed and 20 μl of cell titer reagent were added to all wells. Plates were incubated at 37° C. for 45 minutes prior to absorbance reads on the Wallac plate reader at 490 nm for 0.1 sec/well.
# A549 cells [3] = test: Non-photographic proliferation analysis (Promega Cell titer Aqueous), A549; assay type: cell-based; conditions: 6 concentrations tested
# Description: as §1, §2, §3
# HCT116 cells [4] = test: Non-photographic proliferation analysis (Promega Cell titer Aqueous), HCT116; assay type: cell-based; conditions: 6 concentrations tested
# Description: as §1, §2, §3
# HeLa cells [5] = test: Cell proliferation assay, photographic image analysis of proliferation, apoptosis and death (PAD assay), HeLa; assay type: cell-based; conditions: 6 concentrations tested
# Method in brief: (§4)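 Cells grown in RPMI with 5% FBS (2,000/well) and dosed 24 h after plating with 6.3-fold dilutions in duplicate (master plate 500× final, top 10 mM stock). After 48 h at 37 °C, cells formamide-fixed and DAPI-stained. Image analysis counted live, apoptotic and dead cells.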
# HCT116 cells [6] = test: Cell proliferation assay, photographic image analysis of proliferation, apoptosis and death (PAD assay), HCT116; assay type: cell-based; conditions: 6 concentrations tested
# Description: as §1, §2
# Cells to be analyzed by photography were fixed and stained. One hundred microliters of media were removed and 100 μl of 9.3% […] was added to each well. Plates were left on the benchtop for 45 minutes. A staining solution containing 1.55 μl of 1 mg/ml DAPI added to 18.75 ml PBS was warmed for 15 minutes at 37° C. The cells were aspirated prior to washing with 100 μl of PBS. Seventy microliters of PBS were aspirated and 170 μl of the DAPI solution were added to each well of fixed cells. Plates were left at room temperature for one hour then aspirated and washed twice with 100 μl of PBS. The stained cells were left at 4° C. for a minimum of 16 hours before photographic analysis with Array Scan II (Cellomics). Analysis of the photographic images to determine numbers of live cells (proliferation), apoptotic cells and dead cells, were according to the methods described in U.S. Provisional Patent Application Ser. No. 60/406,714, which incorporated herein in its entirety.
# A549 cells [7] = test: Cell proliferation assay, photographic image analysis of proliferation, apoptosis and death (PAD assay), A549; assay type: cell-based; conditions: 6 concentrations tested
# Method in brief: as §4
Structure (SMILES),APC Flag 8 pt [1],"Cell Titer-Aqueous, HELA 6 pt (HeLa cells [2])","Cell Titer-Aqueous, A549 6 pt (A549 cells [3])","Cell Titer-Aqueous, HCT116 6 pt (HCT116 cells [4])","PAD Assay, HELA 6 pt (HeLa cells [5])","PAD Assay, HCT116 6 pt (HCT116 cells [6])","PAD Assay, A549 6 pt (A549 cells [7])",APC Flag (2 pt) ([1]; 2 concentrations tested)
"Cc1cccc(C)c1N(S(=O)(=O)c1cc(Cl)c(Oc2ccc([N+](=O)[O-])cc2Cl)c(Cl)c1)S(=O)(=O)c1cc(Cl)c(Oc2ccc([N+](=O)[O-])cc2Cl)c(Cl)c1 [Example 145, 3,5-dichloro-4-(2-chloro-4-nitrophenoxy)-N-(2,6-dimethylphenyl)-N-(1,3-dichloro-2-(2-chloro-4-nitrophenoxy)5-sulfonylbenzene)benzenesulfonamide]",+,−,−,−,,,,
"O=[N+]([O-])c1ccc(Oc2c(Cl)cc(S(=O)(=O)Nc3cccc4cccnc34)cc2Cl)c(Cl)c1 [Example 219, 3,5-dichloro-4-(2-chloro-4-nitrophenoxy)-N-quinolin-8-ylbenzenesulfonamide]",+,+,+,,+,+,+,
"O=[N+]([O-])c1ccc(Oc2c(Cl)cc(S(=O)(=O)Nc3ccccc3-n3cccc3)cc2Cl)c(Cl)c1 [Example 285, 3,5-dichloro-4-(2-chloro-4-nitrophenoxy)-N-[2-(1H-pyRRol-1-yl)phenyl]benzene-sulfonamide]",+,,,,+,+,+,
"O=[N+]([O-])c1ccc(Oc2c(Cl)cc(S(=O)(=O)Nc3ccccc3C(F)(F)F)cc2Cl)c(Cl)c1 [Example 230, 3,5-dichloro-4-(2-chloro-4-nitrophenoxy)-N-[2-(trifluoromethyl)phenyl]benzene-sulfonamide]",+,,,,+,+,+,
"N=C(NS(=O)(=O)c1cc(Cl)c(Oc2ccc([N+](=O)[O-])cc2Cl)c(Cl)c1)c1cccc([N+](=O)[O-])c1 [Example 210, N-{[3,5-dichloro-4-(2-chloro-4-nitro-phenoxy)phenyl]sulfonyl}-3-nitrobenzene-carboximidamide]",+,+,+,,+,,+,
"O=[N+]([O-])c1ccc(Oc2c(Cl)cc(S(=O)(=O)Nc3cccc(Br)c3)cc2Cl)c(Cl)c1 [Example 159, N-(3-bromophenyl)-3,5-dichloro-4-(2-chloro-4-nitrophenoxy)benzenesulfonamide]",+,+,+,,+,,+,
"CS(=O)(=O)c1cccc(NS(=O)(=O)c2cc(Cl)c(Oc3ccc([N+](=O)[O-])cc3Cl)c(Cl)c2)c1 [Compound 173, 3,5-dichloro-4-(2-chloro-4-nitrophenoxy)-N-[3-(methylsulfonyl)phenyl]benzenesulfonamide]",,−,−,,−,,−,− (2 pt)
"O=C1Nc2cc(NS(=O)(=O)c3cc(Cl)c(Oc4ccc([N+](=O)[O-])cc4Cl)c(Cl)c3)ccc2OC1(F)F [Example 214, 3,5-dichloro-4-(2-chloro-4-nitrophenoxy)-N-(2,2-difluoro-3-oxo-3,4-dihydro-2H-1,4-benzoxazin-6-yl)benzenesulfonamide]",+,+,−,,+,,+,
"O=[N+]([O-])c1ccc(Oc2c(Cl)cc(S(=O)(=O)Nc3ccsc3)cc2Cl)c(Cl)c1 [Example 165, 3,5-dichloro-4-(2-chloro-4-nitrophenoxy)-N-3-thienylbenzenesulfonamide]",+,+,+,,+,,+,
"O=S(=O)(Nc1ccc(C(F)(F)F)cc1Cl)c1ccc(Oc2ncc(C(F)(F)F)cc2Cl)cc1 [Example 255, N-[2-chloro-4-(trifluoromethyl)phenyl]-4-{[3-chloro-5-(trifluoromethyl)pyridin-2-yl]oxy}benzenesulfonamide]",+,,,,+,+,+,
"CC1CCCC(C)N1S(=O)(=O)c1cc(Cl)c(Oc2ccc([N+](=O)[O-])cc2Cl)c(Cl)c1 (stereo not shown) [Example 140, 1-{[3,5-dichloro-4-(2-chloro-4-nitrophenoxy)phenyl]sulfonyl}-2,6-dimethylpiperidine]",+,−,−,−,,,,
"Cc1ccc(NS(=O)(=O)c2cc(Cl)c(Oc3ccc([N+](=O)[O-])cc3Cl)c(Cl)c2)c(Cl)c1 [Example 251, 3,5-dichloro-N-(2-chloro-4-methylphenyl)-4-(2-chloro-4-nitrophenoxy)benzene-sulfonamide]",+,,,,+,+,+,
"O=[N+]([O-])c1ccc(Oc2c(Cl)cc(S(=O)(=O)Nc3ccc(F)cc3I)cc2Cl)c(Cl)c1 [Example 226, 3,5-dichloro-4-(2-chloro-4-nitrophenoxy)-N-(4-fluoro-2-iodophenyl)benzenesulfonamide]",+,,,,+,+,+,
"Cc1cccc(C(C)C)c1NS(=O)(=O)c1cc(Cl)c(Oc2ccc([N+](=O)[O-])cc2Cl)c(Cl)c1 [Example 160, 3,5-dichloro-4-(2-chloro-4-nitrophenoxy)-N-(2-isopropyl-6-methylphenyl)benzene-sulfonamide]",+,+,+,,+,,+,
